From patent publication US20250074891A1 (Anaxis Pharma Pty Ltd., priority 2021, published 2025) come the findings set out here.

Assay [1] deals with U937 human histiocytic leukemia cell line. The experiment in a line: Cellular assay: inhibition of TSQ induced necroptosis (CellTitre-Glo). The following applies: Homo sapiens, U-937; U937 cells, TSQ cocktail, 48 hours, Table 38; read-out: Inhibition of TSQ-induced necroptosis (IC50 cell-based assay). An outline of the steps: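 U937 cells (20,000/well) pre-dosed with compound (10-point, 1:3 from 36 μM, 0.3% DMSO), then TSQ (hTNF-Fc 100 ng/ml, Smac mimetic 500 nM, Q-VD-OPh 10 μM) for 48 h at 37 °C. Viability by CellTiter-Glo luminescence, normalised to DMSO (100%) and DMSO+TSQ (0%); IC50 from 4-parameter fit.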

The next assay has as its target MLKL (full length) (Homo sapiens (Human), UniProt Q8NB16). In words: KINOMEscan binding assay, MLKL (full length). The following applies: Table 36. As to the method:
Kinase assays. For most assays, kinase-tagged T7 phage strains were grown in parallel in 24-well blocks in an E. coli host derived from the BL21 strain. E. coli were grown to log-phase and infected with T7 phage from a frozen stock (multiplicity of infection=0.4) and incubated with shaking at 32° C. until lysis (90-150 minutes).
The Hill Slope was set to −1.

A further assay concerns U937 cells. In words: Counter screen: cell viability without TSQ cocktail (off-target effect). The arrangement: species or system human. The following applies: Homo sapiens, U-937, Table 38, read-out: Off-target effect (IC50 cell-based assay). As to the method: Counter screen: In parallel, all compounds were tested for their ability to affect cell viability. The same U937 cells were treated with compound in DMSO without the TSQ cocktail. This counter screen enabled evaluation of off-target effects. In this case, cell viability was measured by CelltiterGlo.
A general note: Counterscreens check selectivity or assay interference.

For a further assay, the target named is endogenous MLKL in U937 (Homo sapiens (Human), UniProt Q8NB16). In words: Degradation assay: degradation of endogenous MLKL in human cells (Western blot). The following applies: 24 h incubation, read-out: Degradation of endogenous MLKL in U937 (DC50 cell-based assay in μM). The procedure: DEGRADATION ASSAY: Screening Compounds Procedure to Evaluate the Activity of Compounds in Degrading Endogenous MLKL in Human Cell
endogenous MLKL in U937, sequence (Q8NB16 whole entry): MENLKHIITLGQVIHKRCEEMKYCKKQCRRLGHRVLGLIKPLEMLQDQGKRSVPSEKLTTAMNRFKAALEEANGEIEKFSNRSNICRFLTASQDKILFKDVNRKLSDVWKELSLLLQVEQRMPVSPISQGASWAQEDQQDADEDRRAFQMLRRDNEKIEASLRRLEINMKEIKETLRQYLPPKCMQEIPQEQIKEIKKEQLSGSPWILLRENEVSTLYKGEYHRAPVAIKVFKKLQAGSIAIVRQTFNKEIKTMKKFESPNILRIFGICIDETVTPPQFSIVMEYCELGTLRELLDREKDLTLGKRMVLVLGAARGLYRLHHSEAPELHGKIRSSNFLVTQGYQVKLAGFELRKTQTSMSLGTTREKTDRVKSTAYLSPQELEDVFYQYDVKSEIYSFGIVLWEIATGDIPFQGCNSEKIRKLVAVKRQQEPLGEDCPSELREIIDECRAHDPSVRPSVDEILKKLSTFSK
The human monocyte cell line (U937) was seeded on the day of the experiment in a 24-well plate at a cell density of 5*10^5 cells per well in a volume of 0.5 mL per well.
The compound was diluted in DMSO with a starting concentration of 10 mM and titrated stepwise with a dilution of 1:5. 0.5 μL of the compound dilution was added to the appropriate well to achieve a final concentration of 10; 2; 0.4; 0.08 and 0.016 μM. A DMSO only well was included as control.
The cells were incubated for 24 h in the presence of the compound at 37° C. and 10% CO2.
After the 24 h incubation period, the medium was removed and cells washed with 0.5 mL PBS. The cells were then lysed directly in 60 μL of 1×SDS gel loading buffer.
The cell lysate was heat-denatured at […] for 10 min. 10 μL of lysate per well were run on 18-well 4-15% Criterion TGX stain free gels (BIO-RAD). The proteins were then transferred onto nitrocellulose membrane with a wet transfer protocol in the Criterion Blotter (BIO-RAD).
Membranes were blocked with 5% skim milk in TBST. Primary antibody against MLKL (clone 3H1, MABC604 Merck) was used at 1:2000 dilution in TBST with 1% BSA and left shaking over night at 4° C. After washes with TBST, the membranes were incubated with goat anti-rat IgG HRP-conjugated antibody (Southern Biotech) in 1% skim milk TBST at 1:10000 dilution for 1 h at room temperature. After TBST washes the bands were imaged on the ChemiDoc MP Imaging Systm (BIO-RAD) with Immobilion Western Chemiluminescent HRP Substrate Forte (Millipore). The loading control GAPDH was probed for with rabbit anti-GAPDH (CST 14C10) at 1:2000 dilution in 1% BSA TBST over night at 4° C. TBST washes were followed by incubation with goat anti-rabbit IgG HRP-conjugated antibody (Southern Biotech) in 1% skim milk TBST at 1:10000 dilution for 1 h at room temperature followed by TBST washes. The signal was detected as described above.
The band intensity was measured in the ImageLab Software (BIO-RAD) and the MLKL values adjusted for loading with GAPDH. The percentage of degradation was calculated by normalizing the compound treated values to the DMSO only control.
(In western blotting, separated proteins are transferred to a membrane and probed.)

MLKL (full length), sequence (Q8NB16 whole entry): as above

One may read the IC50 as the concentration that inhibits the measured activity by half. Usually Kd stands for the concentration at which binding is half-saturated. Usually DC50 stands for the midpoint of the concentration-degradation curve. For `CCS(=O)(=O)Nc1ccc(-c2n[nH]c(Nc3ccc(OCCCCC(=O)N[C@H](C(=O)N4C[C@H](O)C[C@H]4C(=O)NCc4ccc(-c5scnc5C)cc4)C(C)(C)C)cn3)c2C(N)=O)cc1OCc1ccc(F)cc1` [Compound 1024, 3-{4-ethanesulfonamido-3-[(4-fluorophenyl)methoxy]phenyl}-5-{[5-(4-{[(2S)-1-[(2S,4R)-4-hydroxy-2-({[4-(4-methyl-1,3-thiazol-5-yl)phenyl]methyl}carbamoyl)pyrrolidin-1-yl]-3,3-dimethyl-1-oxobutan-2-yl]carbamoyl}butoxy)pyridin-2-yl]amino}-1H-pyrazole-4-carboxamide], the values for the half-inhibitory concentration (IC50) (in assay [1]; with U937 cells) were < 1 µM and > 10 µM, respectively. Moreover, on MLKL (full length), the equilibrium dissociation constant (Kd) was < 0.01 µM. Besides, the DC50 on endogenous MLKL in U937 was < 1 µM.

In the case of `CCS(=O)(=O)Nc1ccc(-c2n[nH]c(Nc3ccc(C(=O)OCCCCC(=O)N[C@H](C(=O)N4C[C@H](O)C[C@H]4C(=O)NCc4ccc(-c5scnc5C)cc4)C(C)(C)C)cn3)c2C(N)=O)cc1O[C@@H](C)c1ccc(F)cc1` [Compound 1039, 4-{[(2S)-1-[(2S,4R)-4-hydroxy-2-({[4-(4-methyl-1,3-thiazol-5-yl)phenyl]methyl}carbamoyl)pyrrolidin-1-yl]-3,3-dimethyl-1-oxobutan-2-yl]carbamoyl}butyl 6-[(4-carbamoyl-3-{4-ethanesulfonamido-3-[(1S)-1-(4-fluorophenyl)ethoxy]phenyl}-1H-pyrazol-5-yl)amino]pyridine-3-carboxylate], the figures for the 50% inhibitory concentration (IC50) (in assay [1]; in the assay with U937 cells) were < 1 µM and > 10 µM, respectively. This molecule also showed a Kd on MLKL (full length) of 0.01 to 1 µM. Moreover, at endogenous MLKL in U937, the DC50 is < 1 µM.

For the molecule `Cc1ncsc1-c1ccc(CNC(=O)[C@@H]2C[C@@H](O)CN2C(=O)[C@@H](NC(=O)CCCCCCn2ccc(Nc3[nH]nc(-c4ccc(NS(=O)(=O)C(F)F)c(O[C@@H](C)c5ccc(F)cc5)c4)c3C(N)=O)n2)C(C)(C)C)cc1` [Compound 1040, 3-[4-(difluoromethanesulfonamido)-3-[(1S)-1-(4-fluorophenyl)ethoxy]phenyl]-5-{[1-(6-{[(2S)-1-[(2S,4R)-4-hydroxy-2-({[4-(4-methyl-1,3-thiazol-5-yl)phenyl]methyl}carbamoyl)pyrrolidin-1-yl]-3,3-dimethyl-1-oxobutan-2-yl]carbamoyl}hexyl)-1H-pyrazol-3-yl]amino}-1H-pyrazole-4-carboxamide], the figures for the IC50 (in assay [1]; in the assay with U937 cells) were < 1 µM and > 10 µM, respectively. Further, the Kd on MLKL (full length) is < 0.01 µM. Moreover, the DC50 on endogenous MLKL in U937 was 1 to 10 µM.

Turning to `CCS(=O)(=O)Nc1ccc(-c2n[nH]c(Nc3ccc(C(=O)OCC(=O)N[C@H](C(=O)N4C[C@H](O)C[C@H]4C(=O)NCc4ccc(-c5scnc5C)cc4)C(C)(C)C)cn3)c2C(N)=O)cc1O[C@@H](C)c1ccc(F)cc1` [Compound 1041, {[(2S)-1-[(2S,4R)-4-hydroxy-2-({[4-(4-methyl-1,3-thiazol-5-yl)phenyl]methyl}carbamoyl)pyrrolidin-1-yl]-3,3-dimethyl-1-oxobutan-2-yl]carbamoyl}methyl 6-[(4-carbamoyl-3-{4-ethanesulfonamido-3-[(1S)-1-(4-fluorophenyl)ethoxy]phenyl}-1H-pyrazol-5-yl)amino]pyridine-3-carboxylate], the IC50 in assay [1] is < 1 µM; with U937 cells it was > 10 µM. Also, the Kd at MLKL (full length) is < 0.01 µM. In addition, the DC50 on endogenous MLKL in U937 was < 1 µM.

`Cc1ncsc1-c1ccc(CNC(=O)[C@@H]2C[C@@H](O)CN2C(=O)[C@@H](NC(=O)CCCCCCCn2ccc(Nc3[nH]nc(-c4ccc(NS(=O)(=O)C(F)F)c(O[C@@H](C)c5ccc(F)cc5)c4)c3C(N)=O)n2)C(C)(C)C)cc1` [Compound 1042, 3-[4-(difluoromethanesulfonamido)-3-[(1S)-1-(4-fluorophenyl)ethoxy]phenyl]-5-{[1-(7-{[(2S)-1-[(2S,4R)-4-hydroxy-2-({[4-(4-methyl-1,3-thiazol-5-yl)phenyl]methyl}carbamoyl)pyrrolidin-1-yl]-3,3-dimethyl-1-oxobutan-2-yl]carbamoyl}heptyl)-1H-pyrazol-3-yl]amino}-1H-pyrazole-4-carboxamide]: the values for the half-maximal inhibitory concentration (IC50) (in assay [1]; in the assay with U937 cells) were < 1 µM and 1 to 10 µM, respectively. Further, the Kd on MLKL (full length) is < 0.01 µM. The 50% degradation concentration (DC50) on endogenous MLKL in U937 lay within 1 to 10 µM.

`CCS(=O)(=O)Nc1ccc(-c2n[nH]c(Nc3ccc(C(=O)OCCCC(=O)N[C@H](C(=O)N4C[C@H](O)C[C@H]4C(=O)NCc4ccc(-c5scnc5C)cc4)C(C)(C)C)cn3)c2C(N)=O)cc1O[C@@H](C)c1ccc(F)cc1` [Compound 1043, 3-{[(2S)-1-[(2S,4R)-4-hydroxy-2-({[4-(4-methyl-1,3-thiazol-5-yl)phenyl]methyl}carbamoyl)pyrrolidin-1-yl]-3,3-dimethyl-1-oxobutan-2-yl]carbamoyl}propyl 6-[(4-carbamoyl-3-{4-ethanesulfonamido-3-[(1S)-1-(4-fluorophenyl)ethoxy]phenyl}-1H-pyrazol-5-yl)amino]pyridine-3-carboxylate]: the figures for the 50% inhibitory concentration (IC50) (in assay [1]; in the assay with U937 cells) were < 1 µM and > 10 µM, respectively. Besides, the Kd at MLKL (full length) is < 0.01 µM. Moreover, the DC50 on endogenous MLKL in U937 is < 1 µM.

Regarding `Cc1ncsc1-c1ccc(CNC(=O)[C@@H]2C[C@@H](O)CN2C(=O)[C@@H](NC(=O)c2ccc(Cn3ccc(Nc4[nH]nc(-c5ccc(NS(=O)(=O)C(F)F)c(O[C@@H](C)c6ccc(F)cc6)c5)c4C(N)=O)n3)cc2)C(C)(C)C)cc1` [Compound 1045, 3-[4-(difluoromethanesulfonamido)-3-[(1S)-1-(4-fluorophenyl)ethoxy]phenyl]-5-({1-[(4-{[(2S)-1-[(2S,4R)-4-hydroxy-2-({[4-(4-methyl-1,3-thiazol-5-yl)phenyl]methyl}carbamoyl)pyrrolidin-1-yl]-3,3-dimethyl-1-oxobutan-2-yl]carbamoyl}phenyl)methyl]-1H-pyrazol-3-yl}amino)-1H-pyrazole-4-carboxamide], the values for the IC50 (in assay [1]; in the assay with U937 cells) were < 1 µM and > 10 µM, respectively. For the same molecule, the Kd at MLKL (full length) was < 0.01 µM. Besides, the 50% degradation concentration (DC50) at endogenous MLKL in U937 is < 1 µM.

In the case of `Cc1ncsc1-c1ccc(CNC(=O)[C@@H]2C[C@@H](O)CN2C(=O)[C@@H](NC(=O)CCCCCOc2ccc(Nc3[nH]nc(-c4ccc(NS(=O)(=O)C(F)F)c(O[C@@H](C)c5ccc(F)cc5)c4)c3C(N)=O)nc2)C(C)(C)C)cc1` [Compound 1048, 3-[4-(difluoromethanesulfonamido)-3-[(1S)-1-(4-fluorophenyl)ethoxy]phenyl]-5-({5-[(5-{[(2S)-1-[(2S,4R)-4-hydroxy-2-({[4-(4-methyl-1,3-thiazol-5-yl)phenyl]methyl}carbamoyl)pyrrolidin-1-yl]-3,3-dimethyl-1-oxobutan-2-yl]carbamoyl}pentyl)oxy]pyridin-2-yl}amino)-1H-pyrazole-4-carboxamide], the half-maximal inhibitory concentration (IC50) in assay [1] is < 1 µM; in the assay on U937 cells, > 10 µM. The dissociation constant Kd on MLKL (full length) was < 0.01 µM. Moreover, at endogenous MLKL in U937, the 50% degradation concentration (DC50) is < 1 µM.

On to `Cc1ncsc1-c1ccc(CNC(=O)[C@@H]2C[C@@H](O)CN2C(=O)[C@@H](NC(=O)CN2CCC(Oc3ccc(Nc4[nH]nc(-c5ccc(NS(=O)(=O)C(F)F)c(O[C@@H](C)c6ccc(F)cc6)c5)c4C(N)=O)nc3)CC2)C(C)(C)C)cc1` [Compound 1050, 3-[4-(difluoromethanesulfonamido)-3-[(1S)-1-(4-fluorophenyl)ethoxy]phenyl]-5-[(5-{[1-({[(2S)-1-[(2S,4R)-4-hydroxy-2-({[4-(4-methyl-1,3-thiazol-5-yl)phenyl]methyl}carbamoyl)pyrrolidin-1-yl]-3,3-dimethyl-1-oxobutan-2-yl]carbamoyl}methyl)piperidin-4-yl]oxy}pyridin-2-yl)amino]-1H-pyrazole-4-carboxamide], for which the half-inhibitory concentration (IC50) in assay [1] is 1 to 10 µM; with U937 cells, > 10 µM. The molecule further displayed a Kd at MLKL (full length) of 0.01 to 1 µM. Further, the DC50 on endogenous MLKL in U937 is < 1 µM.
